# Structures can show the parent of a compound that is named as a salt.
# Tests used:
# [1] = test system: primary cortical neurons isolated from mouse embryos; test: OCR in primary cortical neurons; type: cell-based; settings: 5 and 10 μM
# Experimental: Oxygen consumption rate (OCR) measurements following meclizine (5 and 10 μM) or antimycin (1 μM) addition at time 0 (min) in mouse primary cortical neurons obtained from day E14-15 embryos. Data are expressed as mean+/−SD (n≧3).
# Meclizine was confirmed to shift a cell's relative reliance on OXPHOS versus glycolysis by whole cell bioenergetic kinetic assays. […] This was true in primary cardiomyocytes isolated from rat heart (FIG. 3K) and primary cortical neurons isolated from mouse embryos (FIG. 3L). Cardiomyocytes were exposed to the indicated concentration of meclizine for 20 min followed by oxygen measurement in a respiration chamber. Oxygen consumption rate (OCR) measurements were made following meclizine (5 and 10 μM) or antimycin (1 μM) addition at time 0 (min) in mouse primary cortical neurons obtained from day E14-15 embryos.
# [2] = Blood glucose levels in R6 mice; type: in vivo
smiles,measurement,setting,value
"Cc1cccc(CN2CCN(C(c3ccccc3)c3ccc(Cl)cc3)CC2)c1 (racemic) [Meclizine, meclizine hydrochloride]",respiration (OCR) in primary cortical neurons,[1],inhibits respiration
same,blood glucose levels,[2],reduces blood glucose levels

# From US9399032B2, “Methods and compositions for treating degenerative and ischemic disorders” (The General Hospital Corporation, priority 2009, dated 2016)
